# “And” between values parts separate entries of the source, which are not always exact repeats. Identical values can stand only once.
# Experiments:
# HEL cells = assay: Cell viability of HEL cells after siRNA transfection and 72 hr ABT-263; format: cell-based
# Method: (§1) Transfection of siRNAs was performed using Lipofectamine RNAiMAX according to the manufacturer’s recommendations. […] Caspase-3 activity was determined using the Caspase-GLO 3/7 Assay (Promega) in parallel with the CellTiter-GLO viability assay (Promega). The data are expressed as Caspase-3/7 activity divided by cell viability. […]
# K562 cells = assay: Cell viability of K562 cells after siRNA transfection and 72 hr ABT-263; format: cell-based
# Method: as §1
# Data are means of duplicate samples and are representative of two independent experiments. (XLS) Click here for additional data file.
# MST1 = MST1 (Homo sapiens, UniProt Q13043); assay: TR-FRET Kinome MST1; format: binding; details: MST1 Invitrogen .05(Subs Conc)
# From the text: (§2) (XLS) Click here for additional data file.
# BRAF = BRAF (Homo sapiens, UniProt P15056); assay: TR-FRET Kinome BRAF; format: binding; details: BRAF Invitrogen .065(Subs Conc)
# From the text: as §2
# IGF1R = IGF1R (Homo sapiens, UniProt P08069); assay: TR-FRET Kinome IGF1R; format: binding; details: IGF1R Invitrogen .05(Subs Conc)
# From the text: as §2
# Bcl-XL = Bcl-XL protein level by immunoblotting; format: cell-based; details: 24-hr time course
# Method: (§3) SET-2, HEL, MV4;11, and K562 cells were obtained from ATCC and cultured as recommended. UKE-1 cells were purchased from Walter Fiedler (University of Hamburg). Cell lysates were either prepared using CHAPS lysis buffer (10 mM HEPES, pH 7.4, 150 mM NaCl, 1% CHAPS) or cell extraction buffer containing 1% Triton X-100, 0.1% SDS, and 0.5% deoxycholate. All buffers were supplemented with protease and phosphatase inhibitor cocktails prior to use.
# (§4) Fig 1 Regulation of Mcl-1 and Bcl-XL by JAK2 ^V617F. […] Tyrosine phoshorylation of STAT3 and STAT5 was determined by immunoblotting. […] Constitutive tyrosine phosphorylation of STAT3 and STAT5 was determined by immunoblotting. […] Data represent means +/- standard deviation for two independent determinations each performed in triplicate. […] (G) Quantification of the data shown in (F). Data are expressed as the ratio of intensity of Mcl-1/β-actin for each time point. […] Data are means of duplicate samples and are representative of two independent experiments.
# Mcl-1 = Mcl-1 protein level by immunoblotting, quantitation by LiCor Odyssey Imager; format: cell-based
# Method: as §3, §4
# Supplementary file pone.0114363.s003.xls: S3 Dataset Quantitation of western blot data by LiCor Odyssey Imager. (XLS) Click here for additional data file.
# ACVR1 = target: T1, ACVR1 (Homo sapiens, UniProt Q04771); assay: TR-FRET Kinome ACVR1; format: binding; details: ACVR1 Invitrogen .05(Subs Conc)
# T1 construct: purchased Invitrogen
# From the text: as §2
# Sequence of MST1 (Q13043 whole entry): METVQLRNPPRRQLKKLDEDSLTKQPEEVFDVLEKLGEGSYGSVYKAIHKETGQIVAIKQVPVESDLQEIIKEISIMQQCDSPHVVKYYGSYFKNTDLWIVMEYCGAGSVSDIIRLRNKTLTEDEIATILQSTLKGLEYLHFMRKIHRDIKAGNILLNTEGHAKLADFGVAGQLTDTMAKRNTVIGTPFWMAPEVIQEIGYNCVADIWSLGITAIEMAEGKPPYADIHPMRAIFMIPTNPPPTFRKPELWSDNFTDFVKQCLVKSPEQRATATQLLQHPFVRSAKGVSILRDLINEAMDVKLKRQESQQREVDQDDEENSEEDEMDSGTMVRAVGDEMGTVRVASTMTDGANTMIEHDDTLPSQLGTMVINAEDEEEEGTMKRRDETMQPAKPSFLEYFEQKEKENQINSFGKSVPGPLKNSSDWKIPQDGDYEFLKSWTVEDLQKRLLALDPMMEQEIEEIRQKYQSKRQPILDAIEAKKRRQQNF
# Sequence of IGF1R (P08069 31-1367): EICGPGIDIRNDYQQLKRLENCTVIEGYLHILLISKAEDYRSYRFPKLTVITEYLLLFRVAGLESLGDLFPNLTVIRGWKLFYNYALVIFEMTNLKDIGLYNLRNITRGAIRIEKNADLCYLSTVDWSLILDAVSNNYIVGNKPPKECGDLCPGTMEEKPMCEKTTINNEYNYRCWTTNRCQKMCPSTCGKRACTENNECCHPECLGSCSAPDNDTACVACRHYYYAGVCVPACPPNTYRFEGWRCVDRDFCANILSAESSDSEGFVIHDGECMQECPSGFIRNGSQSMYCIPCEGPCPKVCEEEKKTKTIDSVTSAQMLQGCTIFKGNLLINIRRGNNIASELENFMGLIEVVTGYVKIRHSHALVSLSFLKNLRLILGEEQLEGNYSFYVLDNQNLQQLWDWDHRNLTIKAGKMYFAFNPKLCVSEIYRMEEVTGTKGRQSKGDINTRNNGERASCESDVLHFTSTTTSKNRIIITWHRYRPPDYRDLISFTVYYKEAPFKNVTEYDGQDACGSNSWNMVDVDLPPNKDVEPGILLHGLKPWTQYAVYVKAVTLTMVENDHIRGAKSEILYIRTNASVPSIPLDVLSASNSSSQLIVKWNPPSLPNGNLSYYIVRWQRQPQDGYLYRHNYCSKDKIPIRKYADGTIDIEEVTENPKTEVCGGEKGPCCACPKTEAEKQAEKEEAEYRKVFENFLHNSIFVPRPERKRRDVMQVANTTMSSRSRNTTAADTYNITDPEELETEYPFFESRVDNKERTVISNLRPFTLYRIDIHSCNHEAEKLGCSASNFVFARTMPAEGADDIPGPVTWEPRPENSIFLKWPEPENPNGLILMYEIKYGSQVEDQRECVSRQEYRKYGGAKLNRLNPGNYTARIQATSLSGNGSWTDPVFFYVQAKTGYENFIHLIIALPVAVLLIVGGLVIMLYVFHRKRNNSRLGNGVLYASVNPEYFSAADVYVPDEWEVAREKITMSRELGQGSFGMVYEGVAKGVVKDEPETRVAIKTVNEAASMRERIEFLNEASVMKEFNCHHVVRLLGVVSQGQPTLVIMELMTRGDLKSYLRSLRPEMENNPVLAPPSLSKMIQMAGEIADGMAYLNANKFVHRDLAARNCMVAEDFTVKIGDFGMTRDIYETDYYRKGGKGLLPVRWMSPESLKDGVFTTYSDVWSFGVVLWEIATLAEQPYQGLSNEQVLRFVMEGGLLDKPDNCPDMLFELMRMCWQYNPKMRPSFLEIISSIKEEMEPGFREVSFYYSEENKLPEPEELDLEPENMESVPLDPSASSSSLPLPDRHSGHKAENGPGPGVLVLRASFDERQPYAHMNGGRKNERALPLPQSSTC
# T1 sequence (Q04771 21-509): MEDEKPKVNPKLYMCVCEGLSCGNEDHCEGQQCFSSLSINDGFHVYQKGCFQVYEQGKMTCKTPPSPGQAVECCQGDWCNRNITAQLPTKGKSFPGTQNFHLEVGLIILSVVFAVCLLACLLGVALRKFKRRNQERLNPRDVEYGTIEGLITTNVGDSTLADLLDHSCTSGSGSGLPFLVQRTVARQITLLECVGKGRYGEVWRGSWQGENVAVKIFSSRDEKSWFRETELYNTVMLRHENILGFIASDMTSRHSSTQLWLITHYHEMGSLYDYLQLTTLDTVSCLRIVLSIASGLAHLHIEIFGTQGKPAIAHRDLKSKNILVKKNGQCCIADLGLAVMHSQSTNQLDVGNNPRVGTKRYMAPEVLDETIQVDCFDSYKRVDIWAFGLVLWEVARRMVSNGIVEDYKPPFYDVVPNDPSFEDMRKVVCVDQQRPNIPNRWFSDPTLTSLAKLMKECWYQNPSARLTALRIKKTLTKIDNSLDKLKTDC
# Sequence of BRAF (P15056 whole entry): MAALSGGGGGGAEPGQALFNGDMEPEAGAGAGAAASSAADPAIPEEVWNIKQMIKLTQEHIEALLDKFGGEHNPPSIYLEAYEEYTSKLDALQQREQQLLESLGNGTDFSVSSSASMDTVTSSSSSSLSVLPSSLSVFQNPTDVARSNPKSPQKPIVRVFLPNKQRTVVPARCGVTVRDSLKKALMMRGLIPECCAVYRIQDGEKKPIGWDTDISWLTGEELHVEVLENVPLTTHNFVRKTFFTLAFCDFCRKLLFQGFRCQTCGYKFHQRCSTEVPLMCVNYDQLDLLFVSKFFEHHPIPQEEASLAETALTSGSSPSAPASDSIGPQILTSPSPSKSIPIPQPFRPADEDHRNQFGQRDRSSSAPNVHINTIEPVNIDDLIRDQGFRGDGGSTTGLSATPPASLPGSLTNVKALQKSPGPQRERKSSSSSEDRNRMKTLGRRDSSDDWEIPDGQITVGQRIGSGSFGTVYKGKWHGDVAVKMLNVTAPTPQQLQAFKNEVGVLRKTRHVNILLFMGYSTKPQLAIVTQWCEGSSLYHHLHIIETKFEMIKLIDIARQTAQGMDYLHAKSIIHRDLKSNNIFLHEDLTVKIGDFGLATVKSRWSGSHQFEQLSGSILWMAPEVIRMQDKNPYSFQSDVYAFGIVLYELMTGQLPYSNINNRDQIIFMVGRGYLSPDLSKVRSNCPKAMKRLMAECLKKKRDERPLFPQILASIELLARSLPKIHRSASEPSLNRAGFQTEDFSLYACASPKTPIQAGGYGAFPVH
structure (smiles),measurement,setting,value
CC1(C)CCC(c2ccc(Cl)cc2)=C(CN2CCN(c3ccc(C(=O)NS(=O)(=O)c4ccc(N[C@H](CCN5CCOCC5)CSc5ccccc5)c(S(=O)(=O)C(F)(F)F)c4)cc3)CC2)C1 [ABT-263],Cell Viability (% Inhibiton),"HEL cells; Unt., ABT-263 0.003 uM",0%
same,Cell Viability (% Inhibiton),"HEL cells; Unt., ABT-263 0.01 uM",0%
same,Cell Viability (% Inhibiton),"HEL cells; Unt., ABT-263 0.03 uM",3%
same,Cell Viability (% Inhibiton),"HEL cells; Unt., ABT-263 0.1 uM",37%
same,Cell Viability (% Inhibiton),"HEL cells; Unt., ABT-263 0.3 uM",94%
same,Cell Viability (% Inhibiton),"HEL cells; Unt., ABT-263 1 uM",97%
same,Cell Viability (% Inhibiton),"HEL cells; siMcl1-1, ABT-263 0.003 uM",0%
same,Cell Viability (% Inhibiton),"HEL cells; siMcl1-1, ABT-263 0.01 uM",0%
same,Cell Viability (% Inhibiton),"HEL cells; siMcl1-1, ABT-263 0.03 uM",0%
same,Cell Viability (% Inhibiton),"HEL cells; siMcl1-1, ABT-263 0.1 uM",40%
same,Cell Viability (% Inhibiton),"HEL cells; siMcl1-1, ABT-263 0.3 uM",97%
same,Cell Viability (% Inhibiton),"HEL cells; siMcl1-1, ABT-263 1 uM",100%
same,Cell Viability (% Inhibiton),"HEL cells; siMcl1-2, ABT-263 0.003 uM",0%
same,Cell Viability (% Inhibiton),"HEL cells; siMcl1-2, ABT-263 0.01 uM",21%
same,Cell Viability (% Inhibiton),"HEL cells; siMcl1-2, ABT-263 0.03 uM",38%
same,Cell Viability (% Inhibiton),"HEL cells; siMcl1-2, ABT-263 0.1 uM",79%
same,Cell Viability (% Inhibiton),"HEL cells; siMcl1-2, ABT-263 0.3 uM",100%
same,Cell Viability (% Inhibiton),"HEL cells; siMcl1-2, ABT-263 1 uM",100%
same,Cell Viability (% Inhibiton),"HEL cells; siMcl1-3, ABT-263 0.003 uM",0%
same,Cell Viability (% Inhibiton),"HEL cells; siMcl1-3, ABT-263 0.01 uM",37%
same,Cell Viability (% Inhibiton),"HEL cells; siMcl1-3, ABT-263 0.03 uM",65%
same,Cell Viability (% Inhibiton),"HEL cells; siMcl1-3, ABT-263 0.1 uM",90%
same,Cell Viability (% Inhibiton),"HEL cells; siMcl1-3, ABT-263 0.3 uM",100%
same,Cell Viability (% Inhibiton),"HEL cells; siMcl1-3, ABT-263 1 uM",100%
same,Cell Viability (% Inhibiton),"HEL cells; siMcl1-4, ABT-263 0.003 uM",0%
same,Cell Viability (% Inhibiton),"HEL cells; siMcl1-4, ABT-263 0.01 uM",58%
same,Cell Viability (% Inhibiton),"HEL cells; siMcl1-4, ABT-263 0.03 uM",85%
same,Cell Viability (% Inhibiton),"HEL cells; siMcl1-4, ABT-263 0.1 uM",94%
same,Cell Viability (% Inhibiton),"HEL cells; siMcl1-4, ABT-263 0.3 uM",100%
same,Cell Viability (% Inhibiton),"HEL cells; siMcl1-4, ABT-263 1 uM",100%
same,Cell Viability (% Inhibiton),"HEL cells; siNT-1, ABT-263 0.003 uM",0%
same,Cell Viability (% Inhibiton),"HEL cells; siNT-1, ABT-263 0.01 uM",0%
same,Cell Viability (% Inhibiton),"HEL cells; siNT-1, ABT-263 0.03 uM",7%
same,Cell Viability (% Inhibiton),"HEL cells; siNT-1, ABT-263 0.1 uM",30%
same,Cell Viability (% Inhibiton),"HEL cells; siNT-1, ABT-263 0.3 uM",93%
same,Cell Viability (% Inhibiton),"HEL cells; siNT-1, ABT-263 1 uM",98%
same,Cell Viability (% Inhibiton),"K562 cells; K562, Unt., ABT-263 0.003 uM",0%
same,Cell Viability (% Inhibiton),"K562 cells; K562, Unt., ABT-263 0.01 uM",0%
same,Cell Viability (% Inhibiton),"K562 cells; K562, Unt., ABT-263 0.03 uM",0%
same,Cell Viability (% Inhibiton),"K562 cells; K562, Unt., ABT-263 0.1 uM",0%
same,Cell Viability (% Inhibiton),"K562 cells; K562, Unt., ABT-263 0.3 uM",0%
same,Cell Viability (% Inhibiton),"K562 cells; K562, Unt., ABT-263 1 uM",5%
same,Cell Viability (% Inhibiton),"K562 cells; K562, siMcl1-1, ABT-263 0.003 uM",0%
same,Cell Viability (% Inhibiton),"K562 cells; K562, siMcl1-1, ABT-263 0.01 uM",0%
same,Cell Viability (% Inhibiton),"K562 cells; K562, siMcl1-1, ABT-263 0.03 uM",0%
same,Cell Viability (% Inhibiton),"K562 cells; K562, siMcl1-1, ABT-263 0.1 uM",0%
same,Cell Viability (% Inhibiton),"K562 cells; K562, siMcl1-1, ABT-263 0.3 uM",0%
same,Cell Viability (% Inhibiton),"K562 cells; K562, siMcl1-1, ABT-263 1 uM",0%
same,Cell Viability (% Inhibiton),"K562 cells; K562, siMcl1-2, ABT-263 0.003 uM",0%
same,Cell Viability (% Inhibiton),"K562 cells; K562, siMcl1-2, ABT-263 0.01 uM",0%
same,Cell Viability (% Inhibiton),"K562 cells; K562, siMcl1-2, ABT-263 0.03 uM",0%
same,Cell Viability (% Inhibiton),"K562 cells; K562, siMcl1-2, ABT-263 0.1 uM",2%
same,Cell Viability (% Inhibiton),"K562 cells; K562, siMcl1-2, ABT-263 0.3 uM",11%
same,Cell Viability (% Inhibiton),"K562 cells; K562, siMcl1-2, ABT-263 1 uM",21%
same,Cell Viability (% Inhibiton),"K562 cells; K562, siMcl1-3, ABT-263 0.003 uM",0%
same,Cell Viability (% Inhibiton),"K562 cells; K562, siMcl1-3, ABT-263 0.01 uM",0%
same,Cell Viability (% Inhibiton),"K562 cells; K562, siMcl1-3, ABT-263 0.03 uM",0%
same,Cell Viability (% Inhibiton),"K562 cells; K562, siMcl1-3, ABT-263 0.1 uM",0%
same,Cell Viability (% Inhibiton),"K562 cells; K562, siMcl1-3, ABT-263 0.3 uM",13%
same,Cell Viability (% Inhibiton),"K562 cells; K562, siMcl1-3, ABT-263 1 uM",32%
same,Cell Viability (% Inhibiton),"K562 cells; K562, siMcl1-4, ABT-263 0.003 uM",0%
same,Cell Viability (% Inhibiton),"K562 cells; K562, siMcl1-4, ABT-263 0.01 uM",3%
same,Cell Viability (% Inhibiton),"K562 cells; K562, siMcl1-4, ABT-263 0.03 uM",22%
same,Cell Viability (% Inhibiton),"K562 cells; K562, siMcl1-4, ABT-263 0.1 uM",60%
same,Cell Viability (% Inhibiton),"K562 cells; K562, siMcl1-4, ABT-263 0.3 uM",75%
same,Cell Viability (% Inhibiton),"K562 cells; K562, siMcl1-4, ABT-263 1 uM",80%
same,Cell Viability (% Inhibiton),"K562 cells; K562, siNT-1, ABT-263 0.003 uM",0%
same,Cell Viability (% Inhibiton),"K562 cells; K562, siNT-1, ABT-263 0.01 uM",0%
same,Cell Viability (% Inhibiton),"K562 cells; K562, siNT-1, ABT-263 0.03 uM",0%
same,Cell Viability (% Inhibiton),"K562 cells; K562, siNT-1, ABT-263 0.1 uM",0%
same,Cell Viability (% Inhibiton),"K562 cells; K562, siNT-1, ABT-263 0.3 uM",2%
same,Cell Viability (% Inhibiton),"K562 cells; K562, siNT-1, ABT-263 1 uM",10%
"CC(C)(C)c1nc2c3cc[nH]c(=O)c3c3cc(F)ccc3c2[nH]1 [JAKi-I, JAK inhibitor I]",Ki,MST1,28 nM and 29.5 nM
same,Ki,BRAF,> 3370 nM
same,Ki,IGF1R,> 2650 nM
same,Bcl-XL protein level,Bcl-XL,sharply declined
same,Mcl-1 protein level,Mcl-1; 24-hr time course,sharply declined
same,Mcl-1 protein (% control),"Mcl-1; HEL, 1 uM Jaki-I, 2 hr",62 % control
same,Mcl-1 protein (% control),"Mcl-1; HEL, 1 uM Jaki-I, 6 hr",45 % control
same,Mcl-1 protein (% control),"Mcl-1; HEL, 1 uM Jaki-I, 24 hr",42 % control
same,Mcl-1 protein (% control),"Mcl-1; K562, 1 uM Jaki-I, 2 hr",100 % control
same,Mcl-1 protein (% control),"Mcl-1; K562, 1 uM Jaki-I, 6 hr",93 % control
same,Mcl-1 protein (% control),"Mcl-1; K562, 1 uM Jaki-I, 24 hr",93 % control
same,Mcl-1 protein (% control),"Mcl-1; MV4:11, 1 uM Jaki-I, 2 hr",75 % control
same,Mcl-1 protein (% control),"Mcl-1; MV4:11, 1 uM Jaki-I, 6 hr",74 % control
same,Mcl-1 protein (% control),"Mcl-1; MV4:11, 1 uM Jaki-I, 24 hr",65 % control
same,Mcl-1 protein (% control),"Mcl-1; SET-2, 1 uM Jaki-I, 2 hr",68 % control
same,Mcl-1 protein (% control),"Mcl-1; SET-2, 1 uM Jaki-I, 6 hr",50 % control
same,Mcl-1 protein (% control),"Mcl-1; SET-2, 1 uM Jaki-I, 24 hr",35 % control
same,Mcl-1 protein (% control),"Mcl-1; UKE-1, 1 uM Jaki-I, 2 hr",50 % control
same,Mcl-1 protein (% control),"Mcl-1; UKE-1, 1 uM Jaki-I, 6 hr",25 % control
same,Mcl-1 protein (% control),"Mcl-1; UKE-1, 1 uM Jaki-I, 24 hr",22 % control
same,Mcl-1 protein stability,Mcl-1; in the presence of cycloheximide (data not shown),not altered
same,Ki,ACVR1,> 4320 nM

# Source: PMC4362760, “JAK2^V617F Drives Mcl-1 Expression and Sensitizes Hematologic Cell Lines to Dual Inhibition of JAK2 and Bcl-xL” (PLoS ONE, 2015)
